The subject of the assay is DLD-1 cells (human colorectal cancer cells). Kind of assay: Cell viability (MTS) drug combination assay, combination index. The assay is classed as cell-based. The note with it: combination with 17-AAG, CI<1 synergism. As for the experimental part: Human colon adenocarcinoma cell line, DLD-1, and human breast adenocarcinoma cell line, SKBr-3, were obtained from American Type Culture Collection (manassas, VA). DLD-1 cells were maintained in RPMI 1640 medium supplemented with 10% fetal bovine serum, and SKBr-3 cells were cultured in McCoy's 5a medium supplemented with 10% fetal bovine serum. 17-DMAG and 17-AAG were obtained using published procedures. Other cytotoxic agents were purchased commercially from suppliers such as Sigrna Chemical Co. (St. Louis, Mo.) and Sequoia Research Products (Oxford, UK).
Cells were seeded in duplicate in 96-well microtiter plates at a density of 5,000 cells per well and allowed to attach overnight. […] Cell viability was determined using the MTS assay (Promega). […] Cell viability was determined by the MTS assay.
Synergism, additivity or antagonism was determined by median effect analysis using the combination index (CI) calculated using Calcusyn (Biosoft, Cambridge, UK). The combination index is defined as follows: CI=[D]1/[Dx]1+[D]2/[Dx]2 The quantities [D]1 and [D]2 represent the concentrations of the first and second drug, respectively, that in combination provide a response of x % in the assay. The quantities [Dx]1 and [Dx]2 represent the concentrations of the first and second drug, respectively, that when used alone provide a response of x % in the assay. […]

Consider callystatin, for which, where the note is “17-AAG given 24 hours before the nuclear export inhibitor (48 hours)”, the “CI value, 17-AAG Pre-Administration” value came to 0.95 ± 0.04. Besides, the “CI value, 17-AAG Post-Administration” value (nuclear export inhibitor alone 24 hours, then 17-AAG for 48 hours) is recorded as 0.81 ± 0.06.

Source of the values: patent US20050054625A1, “Method for treating diseases using HSP90-inhibiting agents in combination with nuclear export inhibitors” (Kosan Biosciences, Inc., priority 2003, published 2005).
